How the values were obtained:
Test in all cases: relative viability (nuclei count vs DMSO), 5 days (fraction); higher = more cells survive
[1] = compound: Nc1ccccc1NC(=O)c1ccc(CNC(=O)OCc2cccnc2)cc1 [Entinostat] + CC(C)C[C@H](NC(=O)[C@H](Cc1ccccc1)NC(=O)c1cnccn1)B(O)O [Bortezomib] (partner 0.002 µM)
Procedure, shortened: (§1)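 Lung cancer cell lines in 1536-well plates were dosed by pin tool the day after seeding, either with one drug alone or with a fixed anchor-drug dose plus five library-drug doses (not always all listed) in √10 steps. After 5 days, cells were fixed and their nuclei stained in one step (final 0.05% Triton X-100, 1% formaldehyde, 1 ug/ml Hoechst), then counted on 4× images. Relative viability is the nuclei count in treated wells divided by that in vehicle wells. Values are medians of duplicate plates.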

[2] = compound: CN1CCC(CNc2ccc3ncc(-c4cccc(OC(F)(F)F)c4)n3n2)CC1 [SGI-1776] + Cc1nc(Nc2ncc(C(=O)Nc3c(C)cccc3Cl)s2)cc(N2CCN(CCO)CC2)n1 [Dasatinib] (partner 0.075 µM)
Procedure, shortened: as §1

[3] = compound: Nc1ccccc1NC(=O)c1ccc(CNC(=O)OCc2cccnc2)cc1 [Entinostat] + Nc1ncn([C@H]2C[C@H](O)[C@@H](CO)O2)c(=O)n1 [Decitabine] (partner 2 µM)
Procedure, shortened: as §1

[4] = compound: CN1CCC(CNc2ccc3ncc(-c4cccc(OC(F)(F)F)c4)n3n2)CC1 [SGI-1776] + Cc1cc(Nc2cc(N3CCN(C)CC3)nc(Sc3ccc(NC(=O)C4CC4)cc3)n2)n[nH]1 [Tozasertib] (partner 0.1 µM)
Procedure, shortened: as §1

In the case of UMC-11, the relative viability ([1]; first compound 0.02 µM) is reported as 0.557, the relative viability ([1]; first compound 0.06325 µM) is reported as 0.708 and the relative viability ([1]; first compound 0.2 µM) is reported as 0.827. The relative viability ([1]; first compound 0.6325 µM) was 0.217, the relative viability ([1]; first compound 2 µM) was 0.111 and the relative viability ([2]; first compound 0.08 µM) was 0.449. It also gave a relative viability ([2]; first compound 0.8 µM) of 0.455, a relative viability ([2]; first compound 2.53 µM) of 0.615 and a relative viability ([2]; first compound 8 µM) of 0.392. For the same cell line, the relative viability ([3]; first compound 0.02 µM) was 0.65, the relative viability ([3]; first compound 0.06325 µM) was 0.681 and the relative viability ([3]; first compound 0.2 µM) was 0.506. The relative viability ([3]; first compound 0.6325 µM) was 0.386, the relative viability ([3]; first compound 2 µM) was 0.725 and the relative viability ([4]; first compound 0.08 µM) was 0.21. For the same cell line, the relative viability ([4]; first compound 0.8 µM) was 0.194, the relative viability ([4]; first compound 2.53 µM) was 0.208 and the relative viability ([4]; first compound 8 µM) was 0.197.
